From ChEMBL document CHEMBL1132019, “RNA-aminoglycoside antibiotic interactions: fluorescence detection of binding and conformational change” (Bioorg Med Chem Lett, 1999) come the findings set out here.

The nature of experiment [1]: Compound was tested for inhibition against hammer head ribozyme complex (HH16-F).
Experiment [2] is described as follows: Compound was evaluated for the apparent second-order binding constant (K) at a concentration of 90 uM to 5 mM.
Experiment [3] in a line: Compound was evaluated for the apparent first-order binding constant (K) at a concentration of 90 uM to 5 mM.

The structures appear in SMILES notation.

As to `NC[C@@H]1O[C@H](O[C@H]2[C@@H](O)[C@H](O[C@@H]3[C@@H](O)[C@H](N)C[C@H](N)[C@H]3O[C@H]3O[C@H](CN)[C@@H](O)[C@H](O)[C@H]3N)O[C@@H]2CO)[C@H](N)[C@@H](O)[C@@H]1O` [FRAMYCETIN], in experiment [1], the affinity, expressed as Ki, was 13.5 µM. In addition, the K in experiment [2] is 8 M-2; in experiment [3] it was 4 M⁻¹.
